From patent publication US20190337889A1, “COMPOSITIONS AND METHODS OF REGULATING CANCER RELATED DISORDERS AND DISEASES” (ONCO THERAPIES LLC, priority 2016, published 2019) come the findings set out here.

One assay concerns MDA-MB-231. The assay is described as follows: XTT cell death assay, MDA-MB-231 cells. It counts as cell-based. The settings on record: Homo sapiens, # = 200 uM not tested, read-out: MDA-MB-231: concentration with effect on cancer cells. The method, then: (§1) Maintenance and Treatment of Cell Lines. Human HepG2 hepatocarcinoma cells and human U87MG glioma cells (ATCC, Manassas, Va.) were maintained in EMEM medium supplemented with 10% FBS (Hyclone, Logan, Utah). The human 1321N1 astrocytoma cells (European Collection of Cell Cultures, Sigma-Aldrich) were cultured in Dulbecco's modified Eagle's medium supplemented with 10% FBS and 2 mM L-glutamine. Human prostate carcinoma cell line PC3 was cultured in F-12K medium (Life Technologies) supplemented 10% FBS. Human lung carcinoma cell line A549 was cultured in DMEM+2 mM glutamine+10% FBS. ER positive, estrogen independent for growth MCF7/LCC9 cell line was cultured in IMEM (Biofluids) supplemented with 5% charcoal stripped calf serum. Medulloblastoma cell line DAOY was cultured in Eagle's MEM supplemented with 10% FBS. All cell lines except MDA-MB-321 were cultured at 37° C. in 5% CO2, and the medium was replaced every 2-3 days. MDA-MB-231 was grown in Leibovitz's L-15 medium with 10% FBS without CO2 supplementation.
(§2) Cell death assay. The extent of cell death and toxicity of the compounds was tested by XTT assay. The cells were plated in their respective media in 96-well plates. The compounds and were added in dilutions ranging from 0.01 nM to 200 μM and for control DMSO to 1% was used. […] For XTT assay first the medium in the wells was replaced with 200 μs of fresh phenol-red free medium. Then 50 μls of XTT solution with PMS was added to the wells. The XTT solution was made adding 0.02% phenazine methosulfate (Sigma-Aldrich #P9625) to 1 mg/ml XTT sodium salt made up in phenol-red free RPMI (Sigma-Aldrich #X4636). The plate was incubated for 4 hours at 37° C. and then the absorbance was read at a wavelength of 490 nm.
(Tetrazolium assays rely on reduction of a dye to a coloured formazan, in cell work by metabolically active cells.)

A further assay has as its system A549. The assay is described as follows: XTT cell death assay, A549 lung carcinoma cells. It counts as cell-based. The settings on record: Homo sapiens, # = 200 uM not tested, read-out: A549: concentration with effect on cancer cells. As to the method:
as §1, §2

In the next assay the test system is MCF7/LCC9 cell line. As to the kind of experiment: XTT cell death assay, MCF7/LCC9 cells. The settings on record: Homo sapiens, # = 200 uM not tested, read-out: LCC-9: concentration with effect on cancer cells. It is filed as cell-based. The method, then: as §1, §2
Another assay concerns DAOY. The assay is described as follows: XTT cell death assay, DAOY medulloblastoma cells. The settings on record: Homo sapiens, # = 200 uM not tested, read-out: DAOY: concentration with effect on cancer cells. It is filed as cell-based. As to the method:
as §1, §2

A further assay has as its system 1321N1 cells. As to the kind of experiment: XTT cell death assay, 1321N1 astrocytoma cells. It counts as cell-based. The settings on record: Homo sapiens, *Greater than 50% inhibition, dilutions 0.01 nM to 200 μM, usually 24 or 48 hours, read-out: 1321N* (brain cancer): concentration with greater than 50% inhibition. The method, then:
as §1, with “FBS.” for “FBS. All cell lines except MDA-MB-321 were cultured at 37° C. in 5% CO2, and the medium was replaced every 2-3 days. MDA-MB-231 was grown in Leibovitz's L-15 medium with 10% FBS without CO2 supplementation.”
as §2, with “#X4636).” for “#X4636). The plate was incubated for 4 hours at 37° C. and then the absorbance was read at a wavelength of 490 nm.”

Assay [1] relates to HepG2 cells. The assay is described as follows: XTT cell death assay, HepG2 hepatocarcinoma cells. It is filed as cell-based, human. The settings on record: dilutions 0.01 nM to 200 μM, usually 24 or 48 hours; for minimal effective concentration: Homo sapiens, HepG2, *Greater than 50% inhibition, read-out: HepG2* (liver cancer): concentration with greater than 50% inhibition. The method, then:
as §1, with “FBS.” for “FBS. All cell lines except MDA-MB-321 were cultured at 37° C. in 5% CO2, and the medium was replaced every 2-3 days. MDA-MB-231 was grown in Leibovitz's L-15 medium with 10% FBS without CO2 supplementation.”
as §2, with “#X4636).” for “#X4636). The plate was incubated for 4 hours at 37° C. and then the absorbance was read at a wavelength of 490 nm.”

The subject of the next assay is PC3 cells. The assay is described as follows: XTT cell death assay, PC3 prostate carcinoma cells. The settings on record: Homo sapiens, PC-3, # = 200 uM not tested, read-out: PC3: concentration with effect on cancer cells. It is filed as cell-based. The method, then:
as §1, §2

The subject of assay [2] is HepG2 cells. The assay is described as follows: Caspase assay (Caspase-Glo 3/7) on HepG2 cells. It counts as cell-based, human. The settings on record: n=4; for caspase activity (fluorescence ratio to untreated cells): 48 hours after addition, 100 uM. The method, then:
Caspase Assay. Caspase assay was conducted by using the Promega Caspase-Glo 3/7 kit. 100 ul of caspase-Glo 3/7 reagent was added to each well of a white walled 96-well plate containing 100 ul of blank, negative control cells or treated cells in culture medium. The contents of the wells were mixed gently and incubated at room temperature for 30 minutes to 3 hours. The luminescence of each sample was read in a luminometer.

The subject of another assay is A549 xenograft. As to the kind of experiment: Zebrafish xenograft assay with implanted A549 cells. It is filed as in vivo. The settings on record: zebrafish embryos, 100 uM, 4 days after implantation, n=10 to 15. As to the method: Zebrafish xenograft assay. Zebrafish embryos with implanted A549 cells were imaged within 6 hours of cell injection (day 0) and treated with compounds. At 4 days post injection (day 4) the embryos were imaged again. The area of fluorescence due to the labeled cells was measured using Image J at day 0 (area 0) and day 4 (area 4). The change in area was calculated by subtracting area 0 from area 4 (=d area). D area was then normalized for the size of the initial tumor by dividing d area by area 0 (=d area/area 0).

As for `Cc1ccc(CC(C)NCC(O)c2ccccc2)c2ccccc12` (stereo not shown) [NT038, 2-((1-(4-methylnaphthalen-1-yl)propan-2-yl)amino)-1-phenylethan-1-ol], the minimal effective concentration in the assay with MDA-MB-231, with A549, in the assay with MCF7/LCC9 cell line and with DAOY was 100 µM each time.

Regarding `CC(N)c1ccc2ccccc2c1` (stereo not shown) [NT010], the minimal effective concentration with 1321N1 cells and in the assay with HepG2 cells [1] was 200 µM each time.

As for `CC(Cc1cccc2ccccc12)NCC(O)c1cccc(O)c1` (stereo not shown) [NT022, 3-(1-hydroxy-2-((1-(naphthalen-1-yl)propan-2-yl)amino)ethyl)phenol], the minimal effective concentration in the assay with HepG2 cells [1], in the assay with PC3 cells, in the assay with MDA-MB-231, in the assay on A549, in the assay with MCF7/LCC9 cell line and in the assay on DAOY was 100 µM each time. Further, the “caspase activity (fluorescence ratio to untreated cells)” value in the assay on HepG2 cells [2] was “increase in caspase activity”.

As to `CC(Cc1cccc2ccccc12)NCC(O)c1ccc(O)cc1` (stereo not shown) [NT019], the minimal effective concentration in the assay with HepG2 cells [1], in the assay with PC3 cells, in the assay with A549 and with DAOY was 100 µM each time. Further, the “caspase activity (fluorescence ratio to untreated cells)” value in the assay with HepG2 cells [2] is “increase in caspase activity”.

On to `Cc1ccc(CC(C)NCC(O)c2ccc(O)cc2)c2ccccc12` (stereo not shown) [NT039, 4-(1-hydroxy-2-((1-(4-methylnaphthalen-1-yl)propan-2-yl)amino)ethyl)phenol], for which the minimal effective concentration in the assay with A549, in the assay on MCF7/LCC9 cell line and in the assay with DAOY was 100 µM throughout. In the assay with A549 xenograft, the “area of A549 xenograft implant” value is given as “efficacy of reducing the area of xenograft significantly”.

Consider `C[C@H](CCC(=O)O)C[C@H](C)C[C@H](C)C(=O)/C=C(\O)[C@H](C)C[C@H](C)C/C=C/[C@@H](C)[C@@H](O)[C@@H](C)[C@@H](O)C[C@@H]1CC[C@@](C)([C@H]2CC[C@@](C)([C@@H](C)O)O2)O1` [ionomycin, reference compound], for which the “caspase activation (fluorescence ratio to untreated cells)” value with HepG2 cells [2] (48 hours, control compound at 10 uM) is on record as “did not show an increase in caspase activation”.

As for `CC(Cc1ccc2ccccc2c1)NCCc1ccc(O)cc1` (stereo not shown) [NT021, 4-(2-((1-(naphthalen-2-yl)propan-2-yl)amino)ethyl)phenol], the minimal effective concentration with HepG2 cells [1] came to 200 µM; in the assay on PC3 cells, 200 µM; in the assay on MDA-MB-231, 100 µM; with A549 it was 100 µM; with MCF7/LCC9 cell line, 100 µM; in the assay with DAOY it was 100 µM.

With `CC(Cc1cccc2ccccc12)Nc1ccc(O)cc1` (stereo not shown) [NT017, 4-((1-(naphthalen-1-yl)propan-2-yl)amino)phenol], the minimal effective concentration in the assay on 1321N1 cells, in the assay with PC3 cells, in the assay on A549 and in the assay with DAOY was 100 µM each time. Besides, in the assay with HepG2 cells [1], the “HepG2* (liver cancer): concentration with greater than 50% inhibition” value is given as “No effect”.

With `O=C(O)c1cc(O)c(O)c(O)c1` [NT003], the minimal effective concentration with 1321N1 cells and in the assay with HepG2 cells [1] was 200 µM in each case.

Regarding `CC(Cc1ccc2ccccc2c1)NCC(O)c1ccccc1` (stereo not shown) [NT020, 2-((1-(naphthalen-2-yl)propan-2-yl)amino)-1-phenylethan-1-ol], the minimal effective concentration in the assay with HepG2 cells [1], in the assay on PC3 cells, in the assay on MDA-MB-231, in the assay on A549, with MCF7/LCC9 cell line and with DAOY was 100 µM in each case.

Turning to `CC(N)c1cccc2ccccc12` (stereo not shown) [NT009], the minimal effective concentration in the assay with 1321N1 cells and in the assay with HepG2 cells [1] was 100 µM each time.

Take `Cc1ccc(CC(C)NCC(O)c2cccc(O)c2)c2ccccc12` (stereo not shown) [NT037, 3-(1-hydroxy-2-((1-(4-methylnaphthalen-1-yl)propan-2-yl)amino)ethyl)phenol]: the minimal effective concentration with MDA-MB-231, in the assay with A549, with MCF7/LCC9 cell line and in the assay on DAOY was 100 µM each time.

Consider `Cc1ccc(CC(C)NCCc2ccc(O)cc2)c2ccccc12` (stereo not shown) [NT034], for which the minimal effective concentration was 200 µM in the assay on HepG2 cells [1], 100 µM with MDA-MB-231 and 100 µM in the assay on MCF7/LCC9 cell line.

As to `COc1ccc2cc(C(C)N)ccc2c1` (stereo not shown) [NT011], the minimal effective concentration in the assay on 1321N1 cells and with HepG2 cells [1] was 200 µM in each case.

With `CC(Cc1ccc2ccccc2c1)NCC(O)c1cccc(O)c1` (stereo not shown) [NT023, 3-(1-hydroxy-2-((1-(naphthalen-2-yl)propan-2-yl)amino)ethyl)phenol], the minimal effective concentration with HepG2 cells [1], in the assay with PC3 cells, in the assay with MDA-MB-231, with A549, in the assay with MCF7/LCC9 cell line and in the assay on DAOY was 100 µM in each case.

Turning to `CC(Cc1ccc2ccccc2c1)Nc1ccc(O)cc1` (stereo not shown) [NT018, 4-((1-(naphthalen-2-yl)propan-2-yl)amino)phenol], the minimal effective concentration was determined as 100 µM in the assay with 1321N1 cells; 200 µM in the assay on HepG2 cells [1]; 100 µM in the assay with PC3 cells; 100 µM in the assay on A549; 100 µM in the assay with DAOY.

With `CC(Cc1ccc2ccccc2c1)NCC(O)c1ccccc1O` (stereo not shown) [NT030, 2-(1-hydroxy-2-((1-(naphthalen-2-yl)propan-2-yl)amino)ethyl)phenol], the minimal effective concentration in the assay on HepG2 cells [1], in the assay with PC3 cells, in the assay on MDA-MB-231, in the assay with A549, with MCF7/LCC9 cell line and in the assay on DAOY was 100 µM in each case.
